Article PMC7294595 (Bioorganic & medicinal chemistry, 2020)
pIC50: −log10 of the molar value. Where a SMILES comes first, the peptide text is derived from it. [ ]: non-standard residue; d: D form. pY = N[C@@H](Cc1ccc(OP(=O)(O)O)cc1)C(=O)O

Legend:
[1] = molecular target: STAT3-gp130 phosphopeptide interaction (STAT3 SH2 domain) (Homo sapiens, UniProt P40763); experiment: Competition fluorescence polarization assay
STAT3:DNA binding = details: electrophoretic mobility shift assay measuring STAT3:DNA binding; cited from earlier work

Sequence of STAT3-gp130 phosphopeptide interaction (STAT3 SH2 domain) (P40763 127-711): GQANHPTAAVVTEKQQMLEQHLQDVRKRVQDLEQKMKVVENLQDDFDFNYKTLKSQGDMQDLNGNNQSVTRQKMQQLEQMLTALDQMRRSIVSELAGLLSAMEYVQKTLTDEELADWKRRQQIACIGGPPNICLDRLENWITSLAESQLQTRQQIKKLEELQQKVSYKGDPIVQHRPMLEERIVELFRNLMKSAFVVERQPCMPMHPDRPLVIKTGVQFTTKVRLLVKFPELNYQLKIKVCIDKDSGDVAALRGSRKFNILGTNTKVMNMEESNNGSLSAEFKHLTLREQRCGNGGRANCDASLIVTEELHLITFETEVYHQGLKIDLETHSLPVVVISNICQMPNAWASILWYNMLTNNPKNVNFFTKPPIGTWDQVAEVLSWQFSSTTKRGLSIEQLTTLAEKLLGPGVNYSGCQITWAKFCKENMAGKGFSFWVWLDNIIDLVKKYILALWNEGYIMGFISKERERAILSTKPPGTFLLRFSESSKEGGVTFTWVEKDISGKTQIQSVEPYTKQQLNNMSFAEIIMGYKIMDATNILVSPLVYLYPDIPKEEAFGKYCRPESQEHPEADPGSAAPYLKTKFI

Compound | pIC50 [1] | pIC50 (STAT3:DNA binding)
CC(=O)NCC(=O)N[C@@H](Cc1ccc(OP(=O)(O)O)cc1)C(=O)N[C@@H](CC(C)C)C(=O)N1CCC[C@H]1C(=O)N[C@@H](CCC(N)=O)C(=O)N[C@H](C(=O)N[C@H](C(N)=O)C(C)C)[C@@H](C)O [ac-pTyr] (Ac-G[pY]LPQTV-NH2) | 6.21 | –
Ac-G[pY]LPQTV-NH2 [gp130-derived phosphopeptide] | – | 6.82
